Measured values as given in the NIST ThermoML archive (doi:10.1021/je060139a).
Values joined by “and” are separate entries in the source; they are usually repeats but may differ in a detail not shown here. Equal values may be shown once. ± gives the expanded uncertainty stated by the source.

Experiments:
[1] = xn = mol fraction of the nth substance listed; details: Wilhelmy plate method, x2 = 0
[2] = refractive index (Na D-line) (dimensionless); xn = mol fraction of the nth substance listed; details: 100.5 kPa, Liquid, Standard Abbe refractometry, x2 = 0
[3] = for surface tension liquid-gas: Wilhelmy plate method; for mass density: 298.15 K, 101.33 kPa, Liquid
[4] = refractive index (Na D-line) (dimensionless); details: 101.33 kPa, Liquid, Standard Abbe refractometry

Row | surface tension liquid-gas ([1]; 288.15 K) [mN/m] | surface tension liquid-gas ([1]; 298.18 K) [mN/m] | surface tension liquid-gas ([1]; 308.15 K) [mN/m] | surface tension liquid-gas ([1]; 318.15 K) [mN/m] | refractive index ([2]; 288.15 K) | refractive index ([2]; 298.18 K) | refractive index ([2]; 308.15 K) | refractive index ([2]; 318.15 K) | surface tension liquid-gas ([3]; 288.15 K) [mN/m] | mass density [3] [kg/m3] | surface tension liquid-gas ([3]; 298.18 K) [mN/m] | surface tension liquid-gas ([3]; 308.15 K) [mN/m] | surface tension liquid-gas ([3]; 318.15 K) [mN/m] | refractive index ([4]; 288.15 K) | refractive index ([4]; 298.18 K) | refractive index ([4]; 308.15 K) | refractive index ([4]; 318.15 K) | SMILES
1 | 23 ± 0.4 | 22.3 ± 0.4 | 21.5 ± 0.4 | 20.6 ± 0.4 | 1.36333 ± 0.00031 | 1.35941 ± 0.00031 | 1.35531 ± 0.00031 | 1.35148 ± 0.00031 |  |  |  |  |  |  |  |  |  | CCO [ethanol] + CCOC(=O)c1ccccc1O
2 |  |  |  |  |  |  |  |  | 37.5 ± 0.41 | 1125 ± 0.4 | 36.3 ± 0.41 | 35.2 ± 0.41 | 34.4 ± 0.41 | 1.52481 ± 0.00032 | 1.52022 ± 0.00032 | 1.51573 ± 0.00032 | 1.51116 ± 0.00032 | CCOC(=O)c1ccccc1O [ethyl 2-hydroxybenzoate]
3 | 23 ± 0.4 | 22.3 ± 0.4 | 21.5 ± 0.4 | 20.6 ± 0.4 | 1.36333 ± 0.00031 | 1.35941 ± 0.00031 | 1.35531 ± 0.00031 | 1.35148 ± 0.00031 |  |  |  |  |  |  |  |  |  | CCO [ethanol] + CCC(=O)OCc1ccccc1
4 |  |  |  |  |  |  |  |  | 37.7 ± 0.41 | 1050.75 ± 0.3 | 36.4 ± 0.41 | 35.3 ± 0.41 | 34.1 ± 0.41 | 1.50439 ± 0.00032 | 1.49982 ± 0.00032 | 1.49539 ± 0.00032 | 1.49064 ± 0.00032 | CC(=O)OCc1ccccc1 [benzyl ethanoate]
5 |  |  |  |  |  |  |  |  | 24.4 ± 0.42 | 859.78 ± 0.82 | 23.5 ± 0.42 | 22.45 ± 0.42 | 21.6 ± 0.41 | 1.3988 ± 0.00037 | 1.39401 ± 0.00037 | 1.38931 ± 0.00037 | 1.38458 ± 0.00037 | CCOC(=O)CC(C)C [ethyl 3-methylbutanoate]
6 |  |  |  |  |  |  |  |  | 23 ± 0.4 | 785 ± 0.24 | 22.3 ± 0.4 | 21.5 ± 0.4 | 20.6 ± 0.4 | 1.3633 ± 0.0003 and 1.36333 ± 0.00031 | 1.3594 ± 0.0003 and 1.35941 ± 0.00031 | 1.3553 ± 0.0003 and 1.35531 ± 0.00031 | 1.3515 ± 0.0003 and 1.35148 ± 0.00031 | CCO [ethanol]
7 |  |  |  |  |  |  |  |  | 33.3 ± 0.42 | 1023.45 ± 0.52 | 32.3 ± 0.42 | 31.1 ± 0.42 | 30 ± 0.42 | 1.4209 ± 0.0004 | 1.4166 ± 0.0004 | 1.4125 ± 0.0004 | 1.408 ± 0.0004 | CCOC(=O)CC(C)=O [ethyl 3-oxobutanoate]
8 | 23 ± 0.4 | 22.3 ± 0.4 | 21.5 ± 0.4 | 20.6 ± 0.4 | 1.36333 ± 0.00031 | 1.35941 ± 0.00031 | 1.35531 ± 0.00031 | 1.35148 ± 0.00031 |  |  |  |  |  |  |  |  |  | CCO [ethanol] + CC(=O)OCc1ccccc1
9 |  |  |  |  |  |  |  |  | 38.6 ± 0.43 | 1083.92 ± 0.68 | 37.2 ± 0.43 | 35.8 ± 0.43 | 34.8 ± 0.42 | 1.51915 ± 0.00035 | 1.51467 ± 0.00035 | 1.50993 ± 0.00035 | 1.50514 ± 0.00035 | COC(=O)c1ccccc1 [methyl benzoate]
10 | 23 ± 0.4 | 22.3 ± 0.4 | 21.5 ± 0.4 | 20.6 ± 0.4 | 1.36333 ± 0.00031 | 1.35941 ± 0.00031 | 1.35531 ± 0.00031 | 1.35148 ± 0.00031 |  |  |  |  |  |  |  |  |  | CCO [ethanol] + CCOC(=O)CC(C)C
11 |  |  |  |  |  |  |  |  | 36 ± 0.41 | 1027.6 ± 0.4 | 34.8 ± 0.41 | 33.6 ± 0.41 | 32.4 ± 0.41 | 1.4995 ± 0.00034 | 1.49498 ± 0.00034 | 1.49074 ± 0.00034 | 1.48611 ± 0.00034 | CCC(=O)OCc1ccccc1 [benzyl propanoate]
12 | 23 ± 0.4 | 22.3 ± 0.4 | 21.5 ± 0.4 | 20.6 ± 0.4 | 1.36333 ± 0.00031 | 1.35941 ± 0.00031 | 1.35531 ± 0.00031 | 1.35148 ± 0.00031 |  |  |  |  |  |  |  |  |  | CCO [ethanol] + COC(=O)c1ccccc1
13 | 23 ± 0.4 | 22.3 ± 0.4 | 21.5 ± 0.4 | 20.6 ± 0.4 | 1.3633 ± 0.0003 | 1.3594 ± 0.0003 | 1.3553 ± 0.0003 | 1.3515 ± 0.0003 |  |  |  |  |  |  |  |  |  | CCO [ethanol] + CCOC(=O)CC(C)=O
